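Following 48 hours of exposure in 96-well plates, responses at five concentrations were used to interpolate endpoints linearly. At the GI50, growth is halved.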 Active and inactive are the calls of the source. Rule as the data show it: active = GI50 up to about 1.1 µM and inactive = higher.
How the values were obtained:
Experiment in all cases: growth of human tumour cells (NCI), 48 h
EKVX = system: EKVX
HOP-92 = system: HOP-92
SNB-75 = system: SNB-75
RXF 393 = system: RXF 393
SK-MEL-5 = system: SK-MEL-5
SF-295 = system: SF-295
CAKI-1 = system: CAKI-1
TK-10 = system: TK-10
HOP-62 = system: HOP-62
SN12C = system: SN12C
U-251 = system: U-251
A549 = system: A549
SF-539 = system: SF-539
HCT-116 = system: HCT-116
SK-MEL-2 = system: SK-MEL-2
OVCAR-3 = system: OVCAR-3
SK-OV-3 = system: SK-OV-3
COLO 205 = system: COLO 205
CCRF-CEM = system: CCRF-CEM
DU-145 = system: DU-145

| Structure (SMILES) | GI50 (EKVX) | GI50 (HOP-92) | GI50 (SNB-75) | GI50 (RXF 393) | GI50 (SK-MEL-5) | GI50 (SF-295) | GI50 (CAKI-1) | GI50 (TK-10) | GI50 (HOP-62) | GI50 (SN12C) | GI50 (U-251) | GI50 (A549) | GI50 (SF-539) | GI50 (HCT-116) | GI50 (SK-MEL-2) | GI50 (OVCAR-3) | GI50 (SK-OV-3) | GI50 (COLO 205) | GI50 (CCRF-CEM) | GI50 (DU-145) |
| --- | --- | --- | --- | --- | --- | --- | --- | --- | --- | --- | --- | --- | --- | --- | --- | --- | --- | --- | --- | --- |
| Nc1nc(Cl)cc(NCCCCCCCCNc2cc(Cl)nc(N)n2)n1 | > 100 µM (inactive) | 7.76 µM (inactive) | 25.9 µM (inactive) | 12.2 µM (inactive) | 0.675 µM (active) | 1.48 µM (inactive) | 8.81 µM (inactive) | 14.9 µM (inactive) | 27.8 µM (inactive) | 57.4 µM (inactive) | 25.6 µM (inactive) | 3.56 µM (inactive) | 28.7 µM (inactive) | 2.39 µM (inactive) | 13.5 µM (inactive) | 3.2 µM (inactive) | > 100 µM (inactive) | 26.4 µM (inactive) | 73.3 µM (inactive) |  |
| Cc1c(CN2CCOCC2)c(CN2CCOCC2)c(C)n1-c1ccc(Cl)cn1 | > 100 µM (inactive) |  | > 100 µM (inactive) | > 100 µM (inactive) | > 100 µM (inactive) | > 100 µM (inactive) | > 100 µM (inactive) | > 100 µM (inactive) | > 100 µM (inactive) | > 100 µM (inactive) | > 100 µM (inactive) | > 100 µM (inactive) |  | > 100 µM (inactive) | > 100 µM (inactive) | > 100 µM (inactive) | > 100 µM (inactive) | > 100 µM (inactive) | > 100 µM (inactive) | > 100 µM (inactive) |
| CC[C@H]1OC([C@H](O)C/C=C\C#C[Si](C)(C)C)C/C=C\C[C@H]1O[Si](C)(C)C(C)(C)C (some centres not stated) | > 100 µM (inactive) |  | > 100 µM (inactive) | > 100 µM (inactive) | > 100 µM (inactive) | > 100 µM (inactive) | > 100 µM (inactive) |  | > 100 µM (inactive) | > 100 µM (inactive) | > 100 µM (inactive) | > 100 µM (inactive) |  | > 100 µM (inactive) | > 100 µM (inactive) | > 100 µM (inactive) | > 100 µM (inactive) | > 100 µM (inactive) | 43.3 µM (inactive) | > 100 µM (inactive) |
| CCCCOC(=O)CNC(=O)OC/C=C/C#CC#C/C=C/COC(=O)NCC(=O)OCCCC | > 10 µM (inactive) | > 10 µM (inactive) | 27 µM (inactive) | > 10 µM (inactive) | > 10 µM (inactive) | > 10 µM (inactive) | > 10 µM (inactive) | > 10 µM (inactive) | > 10 µM (inactive) | > 10 µM (inactive) | > 10 µM (inactive) | > 10 µM (inactive) | > 10 µM (inactive) | > 10 µM (inactive) | > 10 µM (inactive) | > 10 µM (inactive) | > 10 µM (inactive) | > 10 µM (inactive) | > 10 µM (inactive) |  |
| CCNC(=O)COc1ccc(Cl)c(C)c1 |  | > 100 µM (inactive) | 86.1 µM (inactive) | > 100 µM (inactive) | > 100 µM (inactive) | > 100 µM (inactive) | > 100 µM (inactive) | > 100 µM (inactive) | > 100 µM (inactive) | > 100 µM (inactive) | > 100 µM (inactive) | > 100 µM (inactive) | > 100 µM (inactive) | > 100 µM (inactive) | > 100 µM (inactive) | > 100 µM (inactive) | > 100 µM (inactive) | > 100 µM (inactive) | > 100 µM (inactive) |  |
| N#C[C@@H](c1ccccn1)c1ncccc1[N+](=O)[O-] | > 100 µM (inactive) |  | > 100 µM (inactive) | > 100 µM (inactive) | 90.2 µM (inactive) | > 100 µM (inactive) | > 100 µM (inactive) |  | > 100 µM (inactive) | > 100 µM (inactive) | > 100 µM (inactive) | > 100 µM (inactive) |  | > 100 µM (inactive) | > 100 µM (inactive) | > 100 µM (inactive) | > 100 µM (inactive) | > 100 µM (inactive) | > 100 µM (inactive) | > 100 µM (inactive) |
| COc1cc(C(C)c2cc3c(cc2OCCOCCOc2cc4c(cc2C(C)c2cc(OC)c(OC)c(OC)c2)OCO4)OCO3)cc(OC)c1OC (configuration not stated) | > 10 µM (inactive) | 16.4 µM (inactive) | 19.1 µM (inactive) | > 10 µM (inactive) | 89.1 µM (inactive) | 46.7 µM (inactive) | > 10 µM (inactive) | > 10 µM (inactive) | > 10 µM (inactive) | > 10 µM (inactive) | > 10 µM (inactive) | > 10 µM (inactive) | > 10 µM (inactive) | > 10 µM (inactive) | > 10 µM (inactive) | > 10 µM (inactive) | > 10 µM (inactive) | > 10 µM (inactive) | > 10 µM (inactive) |  |
